Literature values in patent US11654154B2, “Process for preparing injectable Fosaprepitant Dimeglumine compositions having improved storage stability” (Navinta III Inc, priority 2019, dated 2023).
Entries after “also recorded” stand apart in the source; their conditions may differ.

Tests used:
[1] = for Solubility in water / aqueous solution (in words): water or aqueous solution
[2] = tested on: chemotherapy induced nausea and vomiting (CINV); details: added to standard regimen of ondansetron and dexamethasone; highly emetogenic cisplatin-based chemotherapy

SMILES: C[C@@H](O[C@H]1OCCN(Cc2nc(O)n(P(=O)(O)O)n2)[C@H]1c1ccc(F)cc1)c1cc(C(F)(F)F)cc(C(F)(F)F)c1 [Fosaprepitant]
- Solubility in water ([1]; water): about 300 mg/mL
- Solubility in water / aqueous solution (in words) [1]: good solubility

SMILES: C[C@@H](O[C@H]1OCCN(Cc2n[nH]c(=O)[nH]2)[C@H]1c1ccc(F)cc1)c1cc(C(F)(F)F)cc(C(F)(F)F)c1 [Aprepitant]
- Protection against CINV [2]: consistently superior protection
- Solubility in water / aqueous solution (in words) [1]: limited solubility; also recorded: minimal solubility
